Measured values taken from ChEMBL document CHEMBL4507293 (2021).

What was measured:
[1] = target: Serine/threonine-protein kinase MRCK gamma (Homo sapiens) (UniProt Q6DT37); details: Compound concentration 100.0 nM
[2] = target: Interferon-induced, double-stranded RNA-activated protein kinase (Homo sapiens) (UniProt P19525); details: Compound concentration 100.0 nM
[3] = test system: Phosphatidylinositol 4,5-bisphosphate 3-kinase catalytic subunit alpha isoform (Homo sapiens), P42336 [E545A]; details: Compound concentration 100.0 nM
[4] = target: Serine/threonine-protein kinase PLK1 (Homo sapiens) (UniProt P53350); details: Compound concentration 100.0 nM
[5] = test system: Receptor-type tyrosine-protein kinase FLT3 (Homo sapiens), P36888 [UNDEFINED MUTATION]; details: Compound concentration 100.0 nM
[6] = target: Serine/threonine-protein kinase 16 (Homo sapiens) (UniProt O75716); details: Compound concentration 100.0 nM
[7] = target: High affinity 3',5'-cyclic-AMP phosphodiesterase 7A (Homo sapiens, UniProt Q13946); assay: Biochemical assay (PDE7A)
[8] = target: T1, 5-hydroxytryptamine receptor 2C (Homo sapiens) (UniProt P28335); details: Compound concentration 10.0 uM
T1 sequence (whole entry): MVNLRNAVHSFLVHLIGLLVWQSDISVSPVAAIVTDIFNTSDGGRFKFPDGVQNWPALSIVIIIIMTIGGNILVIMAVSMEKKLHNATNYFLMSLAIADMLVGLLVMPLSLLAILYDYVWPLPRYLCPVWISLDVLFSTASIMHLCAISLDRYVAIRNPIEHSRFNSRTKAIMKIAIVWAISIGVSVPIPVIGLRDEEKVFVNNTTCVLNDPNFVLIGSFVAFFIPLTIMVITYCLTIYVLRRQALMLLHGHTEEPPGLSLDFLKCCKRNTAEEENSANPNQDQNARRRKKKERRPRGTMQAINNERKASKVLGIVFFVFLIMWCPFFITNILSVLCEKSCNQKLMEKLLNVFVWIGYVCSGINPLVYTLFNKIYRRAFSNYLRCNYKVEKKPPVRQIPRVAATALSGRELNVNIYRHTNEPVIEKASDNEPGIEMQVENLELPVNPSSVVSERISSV

[9] = target: Macrophage colony-stimulating factor 1 receptor (Homo sapiens) (UniProt P07333); details: Compound concentration 100.0 nM
[10] = test system: Epidermal growth factor receptor (Homo sapiens), P00533 [UNDEFINED MUTATION]; details: Compound concentration 100.0 nM
Chain of Epidermal growth factor receptor (Homo sapiens), P00533 [UNDEFINED MUTATION] (P00533 whole entry, looked up, change not shown): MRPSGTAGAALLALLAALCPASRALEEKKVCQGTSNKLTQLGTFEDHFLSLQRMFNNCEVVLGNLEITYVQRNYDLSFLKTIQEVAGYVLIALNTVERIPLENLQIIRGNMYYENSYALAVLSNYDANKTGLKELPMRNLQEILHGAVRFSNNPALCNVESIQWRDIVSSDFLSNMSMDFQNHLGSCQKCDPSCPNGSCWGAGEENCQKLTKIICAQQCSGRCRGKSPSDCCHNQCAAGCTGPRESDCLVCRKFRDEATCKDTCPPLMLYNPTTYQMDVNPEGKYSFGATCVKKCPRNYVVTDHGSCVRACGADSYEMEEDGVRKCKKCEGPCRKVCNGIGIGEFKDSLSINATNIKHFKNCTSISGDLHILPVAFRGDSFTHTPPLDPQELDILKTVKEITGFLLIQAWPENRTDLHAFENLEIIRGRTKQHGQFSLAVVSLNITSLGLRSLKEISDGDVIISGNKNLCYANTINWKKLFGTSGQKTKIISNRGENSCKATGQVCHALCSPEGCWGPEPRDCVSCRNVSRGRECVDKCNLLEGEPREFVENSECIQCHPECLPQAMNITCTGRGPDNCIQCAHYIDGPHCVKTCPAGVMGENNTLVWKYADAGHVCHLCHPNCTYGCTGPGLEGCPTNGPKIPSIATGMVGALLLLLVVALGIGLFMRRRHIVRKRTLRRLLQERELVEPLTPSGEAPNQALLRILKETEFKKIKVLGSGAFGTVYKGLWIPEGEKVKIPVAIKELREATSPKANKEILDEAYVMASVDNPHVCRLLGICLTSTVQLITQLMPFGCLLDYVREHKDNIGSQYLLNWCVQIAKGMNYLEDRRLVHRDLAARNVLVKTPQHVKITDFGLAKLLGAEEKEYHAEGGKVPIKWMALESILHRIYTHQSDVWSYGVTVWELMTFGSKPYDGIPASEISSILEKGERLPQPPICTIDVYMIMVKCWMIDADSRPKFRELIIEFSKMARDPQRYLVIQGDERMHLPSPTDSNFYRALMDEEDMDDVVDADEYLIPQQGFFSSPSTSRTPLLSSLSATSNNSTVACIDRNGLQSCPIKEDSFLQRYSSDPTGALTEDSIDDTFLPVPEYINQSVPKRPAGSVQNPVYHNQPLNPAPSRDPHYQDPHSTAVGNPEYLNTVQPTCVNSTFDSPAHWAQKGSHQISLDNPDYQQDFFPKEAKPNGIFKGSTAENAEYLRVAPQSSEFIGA

[11] = target: Ephrin type-A receptor 4 (Homo sapiens) (UniProt P54764); details: Compound concentration 100.0 nM
[12] = target: Serine/threonine-protein kinase PLK2 (Homo sapiens) (UniProt Q9NYY3); details: Compound concentration 100.0 nM
[13] = target: Cyclin-dependent kinase 11A (Homo sapiens) (UniProt Q9UQ88); details: Compound concentration 100.0 nM
Chain of Cyclin-dependent kinase 11A (Homo sapiens) (Q9UQ88 whole entry): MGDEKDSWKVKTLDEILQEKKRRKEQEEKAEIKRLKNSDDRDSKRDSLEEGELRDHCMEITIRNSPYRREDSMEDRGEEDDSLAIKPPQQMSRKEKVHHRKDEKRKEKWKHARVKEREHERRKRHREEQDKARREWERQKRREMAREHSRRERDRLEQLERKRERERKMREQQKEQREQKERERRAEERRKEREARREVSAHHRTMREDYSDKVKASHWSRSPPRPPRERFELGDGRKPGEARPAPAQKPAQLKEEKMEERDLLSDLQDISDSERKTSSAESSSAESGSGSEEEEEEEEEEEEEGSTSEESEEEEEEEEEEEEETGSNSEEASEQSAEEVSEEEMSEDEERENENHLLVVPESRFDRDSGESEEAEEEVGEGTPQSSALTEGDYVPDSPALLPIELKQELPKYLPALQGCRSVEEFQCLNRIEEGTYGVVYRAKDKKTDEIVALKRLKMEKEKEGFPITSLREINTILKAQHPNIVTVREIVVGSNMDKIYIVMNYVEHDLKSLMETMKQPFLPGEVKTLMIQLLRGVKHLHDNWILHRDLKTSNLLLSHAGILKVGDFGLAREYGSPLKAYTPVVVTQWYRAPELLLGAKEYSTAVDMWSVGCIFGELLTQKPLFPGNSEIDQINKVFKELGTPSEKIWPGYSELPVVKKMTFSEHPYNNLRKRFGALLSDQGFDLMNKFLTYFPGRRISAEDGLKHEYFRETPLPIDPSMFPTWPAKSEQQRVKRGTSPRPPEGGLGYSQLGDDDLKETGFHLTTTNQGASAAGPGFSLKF

[14] = target: Calcium/calmodulin-dependent protein kinase type 1B (Homo sapiens) (UniProt Q6P2M8); details: Compound concentration 100.0 nM
[15] = test system: Proto-oncogene tyrosine-protein kinase receptor Ret (Homo sapiens), P07949 [V804M]; details: Compound concentration 100.0 nM
[16] = target: Phosphatidylinositol 4-phosphate 5-kinase type-1 gamma (Homo sapiens) (UniProt O60331); details: Compound concentration 100.0 nM
[17] = target: Casein kinase I isoform delta (Homo sapiens) (UniProt P48730); details: Compound concentration 100.0 nM
[18] = target: T2, Alpha-1A adrenergic receptor (Homo sapiens) (UniProt P35348); details: Compound concentration 10.0 uM
T2 sequence (whole entry): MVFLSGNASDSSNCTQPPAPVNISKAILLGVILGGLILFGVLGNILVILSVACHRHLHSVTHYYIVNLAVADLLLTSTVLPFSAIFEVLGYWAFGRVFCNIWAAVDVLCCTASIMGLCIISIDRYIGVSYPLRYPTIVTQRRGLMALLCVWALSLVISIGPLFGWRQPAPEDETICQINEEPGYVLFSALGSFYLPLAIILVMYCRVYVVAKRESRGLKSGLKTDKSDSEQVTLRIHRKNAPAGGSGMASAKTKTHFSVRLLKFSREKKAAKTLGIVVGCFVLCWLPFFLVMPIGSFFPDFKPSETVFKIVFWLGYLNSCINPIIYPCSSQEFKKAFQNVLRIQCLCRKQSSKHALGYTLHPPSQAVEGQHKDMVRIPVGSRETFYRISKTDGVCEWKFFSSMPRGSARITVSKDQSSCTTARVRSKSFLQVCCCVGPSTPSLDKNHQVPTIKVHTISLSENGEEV

[19] = target: G protein-coupled receptor kinase 3 (Homo sapiens) (UniProt P35626); details: Compound concentration 100.0 nM
[20] = test system: Epidermal growth factor receptor (Homo sapiens), P00533 [UNDEFINED MUTATION]; details: Compound concentration 100.0 nM; remark: listed apart in the source
[21] = target: Serine/threonine-protein kinase ICK (Homo sapiens) (UniProt Q9UPZ9); details: Compound concentration 100.0 nM
[22] = test system: Tyrosine-protein kinase ABL1 (Homo sapiens), P00519 [E255K]; details: Compound concentration 100.0 nM
[23] = target: Glycogen synthase kinase-3 beta (Homo sapiens) (UniProt P49841); details: Compound concentration 100.0 nM
Chain of Glycogen synthase kinase-3 beta (Homo sapiens) (P49841 whole entry, looked up): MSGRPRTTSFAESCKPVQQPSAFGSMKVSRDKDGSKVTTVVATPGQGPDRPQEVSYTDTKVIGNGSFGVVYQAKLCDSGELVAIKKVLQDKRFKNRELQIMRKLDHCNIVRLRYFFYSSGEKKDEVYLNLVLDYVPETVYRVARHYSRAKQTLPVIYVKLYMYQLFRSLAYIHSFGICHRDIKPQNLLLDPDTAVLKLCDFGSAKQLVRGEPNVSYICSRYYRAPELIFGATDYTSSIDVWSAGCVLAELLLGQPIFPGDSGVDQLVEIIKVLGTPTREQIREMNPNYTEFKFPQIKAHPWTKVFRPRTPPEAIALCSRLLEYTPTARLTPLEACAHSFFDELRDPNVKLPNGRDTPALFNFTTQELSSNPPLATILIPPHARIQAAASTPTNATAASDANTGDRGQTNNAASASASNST

[24] = target: Serine/threonine-protein kinase PAK 6 (Homo sapiens) (UniProt Q9NQU5); details: Compound concentration 100.0 nM
[25] = target: Serine/threonine-protein kinase Nek5 (Homo sapiens) (UniProt Q6P3R8); details: Compound concentration 100.0 nM
[26] = test system: Receptor-type tyrosine-protein kinase FLT3 (Homo sapiens), P36888 [N841I]; details: Compound concentration 100.0 nM
[27] = target: Ephrin type-A receptor 8 (Homo sapiens) (UniProt P29322); details: Compound concentration 100.0 nM
[28] = test system: Mast/stem cell growth factor receptor Kit (Homo sapiens), P10721 [L576P]; details: Compound concentration 100.0 nM
Chain of Mast/stem cell growth factor receptor Kit (Homo sapiens), P10721 [L576P] (P10721 whole entry L576P): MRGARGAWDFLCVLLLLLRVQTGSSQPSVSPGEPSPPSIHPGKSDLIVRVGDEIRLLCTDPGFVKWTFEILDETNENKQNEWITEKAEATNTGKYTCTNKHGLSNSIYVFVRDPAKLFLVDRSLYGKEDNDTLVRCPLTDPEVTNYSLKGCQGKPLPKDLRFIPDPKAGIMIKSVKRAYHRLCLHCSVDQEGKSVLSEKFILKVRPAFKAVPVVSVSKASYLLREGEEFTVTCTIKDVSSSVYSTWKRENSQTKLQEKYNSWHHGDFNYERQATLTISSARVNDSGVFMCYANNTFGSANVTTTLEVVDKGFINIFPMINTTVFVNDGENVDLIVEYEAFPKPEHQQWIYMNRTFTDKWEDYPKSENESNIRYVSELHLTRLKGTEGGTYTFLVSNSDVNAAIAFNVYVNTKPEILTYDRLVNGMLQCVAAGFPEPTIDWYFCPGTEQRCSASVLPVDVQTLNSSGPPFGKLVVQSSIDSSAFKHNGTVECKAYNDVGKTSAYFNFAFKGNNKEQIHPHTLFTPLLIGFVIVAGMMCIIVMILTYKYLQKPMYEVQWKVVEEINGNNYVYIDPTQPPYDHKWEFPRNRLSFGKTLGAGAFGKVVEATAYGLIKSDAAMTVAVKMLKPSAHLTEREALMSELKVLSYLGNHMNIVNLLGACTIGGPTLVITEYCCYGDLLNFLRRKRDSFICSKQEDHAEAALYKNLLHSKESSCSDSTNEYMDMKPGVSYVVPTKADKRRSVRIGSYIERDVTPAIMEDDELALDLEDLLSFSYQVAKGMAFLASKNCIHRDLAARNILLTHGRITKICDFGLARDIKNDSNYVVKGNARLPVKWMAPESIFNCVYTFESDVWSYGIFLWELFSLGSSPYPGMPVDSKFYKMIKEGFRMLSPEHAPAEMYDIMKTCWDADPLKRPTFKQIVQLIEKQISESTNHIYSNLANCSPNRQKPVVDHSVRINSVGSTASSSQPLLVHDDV

[29] = target: Cyclin-dependent kinase-like 5 (Homo sapiens) (UniProt O76039); details: Compound concentration 100.0 nM
[30] = target: STE20/SPS1-related proline-alanine-rich protein kinase (Homo sapiens) (UniProt Q9UEW8); details: Compound concentration 100.0 nM
[31] = test system: Tyrosine-protein kinase ABL1 (Homo sapiens), P00519 [F317I]; details: Compound concentration 100.0 nM
[32] = target: Serine/threonine-protein kinase PAK 5 (Homo sapiens) (UniProt Q9P286); details: Compound concentration 100.0 nM

Chain of Serine/threonine-protein kinase MRCK gamma (Homo sapiens) (Q6DT37 whole entry): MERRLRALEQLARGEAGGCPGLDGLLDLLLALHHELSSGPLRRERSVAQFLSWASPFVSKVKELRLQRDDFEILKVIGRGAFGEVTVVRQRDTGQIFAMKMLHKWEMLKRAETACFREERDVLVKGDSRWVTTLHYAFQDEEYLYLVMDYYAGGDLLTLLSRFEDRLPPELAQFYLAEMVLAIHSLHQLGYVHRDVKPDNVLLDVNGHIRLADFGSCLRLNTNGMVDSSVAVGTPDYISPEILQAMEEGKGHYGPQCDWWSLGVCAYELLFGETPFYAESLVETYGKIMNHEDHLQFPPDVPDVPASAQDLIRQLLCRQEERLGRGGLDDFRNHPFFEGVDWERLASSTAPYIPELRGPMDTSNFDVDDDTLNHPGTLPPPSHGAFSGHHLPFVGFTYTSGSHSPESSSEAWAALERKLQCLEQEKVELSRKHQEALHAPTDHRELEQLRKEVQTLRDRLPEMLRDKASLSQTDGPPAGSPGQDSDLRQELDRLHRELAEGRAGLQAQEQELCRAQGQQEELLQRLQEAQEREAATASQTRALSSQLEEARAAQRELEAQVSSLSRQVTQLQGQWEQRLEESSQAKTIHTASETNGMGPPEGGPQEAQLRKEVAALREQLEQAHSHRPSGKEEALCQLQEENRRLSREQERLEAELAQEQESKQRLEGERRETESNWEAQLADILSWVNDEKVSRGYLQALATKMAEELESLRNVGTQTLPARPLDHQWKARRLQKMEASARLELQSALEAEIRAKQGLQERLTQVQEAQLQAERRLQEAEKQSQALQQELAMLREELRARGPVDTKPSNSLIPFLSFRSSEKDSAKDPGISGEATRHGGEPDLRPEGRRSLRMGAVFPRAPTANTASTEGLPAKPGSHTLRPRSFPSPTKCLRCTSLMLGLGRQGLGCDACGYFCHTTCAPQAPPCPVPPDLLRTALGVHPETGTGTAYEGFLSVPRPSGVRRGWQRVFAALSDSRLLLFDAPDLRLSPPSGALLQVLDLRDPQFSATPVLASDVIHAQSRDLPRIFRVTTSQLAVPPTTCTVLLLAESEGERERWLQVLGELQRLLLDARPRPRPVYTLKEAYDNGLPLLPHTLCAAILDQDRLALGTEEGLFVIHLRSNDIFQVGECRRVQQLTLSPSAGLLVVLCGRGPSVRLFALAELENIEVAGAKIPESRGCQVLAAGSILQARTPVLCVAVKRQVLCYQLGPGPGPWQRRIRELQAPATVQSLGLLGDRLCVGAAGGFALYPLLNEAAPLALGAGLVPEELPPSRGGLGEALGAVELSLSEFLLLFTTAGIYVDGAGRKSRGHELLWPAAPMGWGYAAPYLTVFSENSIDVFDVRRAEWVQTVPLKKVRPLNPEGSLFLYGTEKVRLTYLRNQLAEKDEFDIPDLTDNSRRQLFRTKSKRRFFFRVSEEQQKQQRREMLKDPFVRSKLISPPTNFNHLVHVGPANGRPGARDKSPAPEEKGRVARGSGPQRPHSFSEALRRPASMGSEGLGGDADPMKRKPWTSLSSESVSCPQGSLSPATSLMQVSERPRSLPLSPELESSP

| Compound | residual activity [1] | residual activity [2] | residual activity [3] | residual activity [4] | residual activity [5] | residual activity [6] | Ki [7] | inhibition [8] | residual activity [9] | residual activity [10] | residual activity [11] | residual activity [12] | residual activity [13] | residual activity [14] | residual activity [15] | residual activity [16] | residual activity [17] | inhibition [18] | residual activity [19] | residual activity [20] | also measured |
| --- | --- | --- | --- | --- | --- | --- | --- | --- | --- | --- | --- | --- | --- | --- | --- | --- | --- | --- | --- | --- | --- |
| CC(C)CC(=O)N1CCc2nc(-c3ccc(Br)cc3)nc(N(C)Cc3ccccc3)c2C1 [THPP-1-NC] | 100% | 100% | 100% | 100% | 68% | 100% | > 25.3 µM (not active) | -6.28% | 100% | 100% | 100% | 100% | 100% | 100% | 82% | 85% | 83% | -1.11% | 100% | 99% | residual activity [21]: 100%; residual activity [22]: 100%; residual activity [23]: 100%; residual activity [24]: 100%; residual activity [25]: 100%; residual activity [26]: 100%; residual activity [27]: 100%; residual activity [28]: 94%; residual activity [29]: 100%; residual activity [30]: 100%; residual activity [31]: 100%; residual activity [32]: 100% |
| COCCOc1nc(-c2ccc(Cl)nc2)nc2c1CN(C(=O)c1ncn3ccccc13)CC2 [THPP-1] | 100% | 100% | 100% | 100% | 64% | 100% | 11.2 µM (not active) | 13.3% | 100% | 100% | 100% | 100% | 100% | 100% | 89% | 67% | 84% | 12.7% | 100% | 100% | residual activity [21]: 100%; residual activity [22]: 100%; residual activity [23]: 100%; residual activity [24]: 100%; residual activity [25]: 100%; residual activity [26]: 100%; residual activity [27]: 100%; residual activity [28]: 100%; residual activity [29]: 100%; residual activity [30]: 100%; residual activity [31]: 100%; residual activity [32]: 100% |
